This is an account of results in publication PMC11984586, “A novel spider toxin as a selective antagonist of the Kv1 subfamily of voltage-gated potassium channels through gating modulation” (The Journal of Biological Chemistry, 2025).

Bridge positions count the residues as written; N and C are the ends. Peptide text beside a SMILES is read from it.

In this assay the target is T1, Kv1.7/A256T (Homo sapiens, UniProt Q96RP8, A256T).
T1 construct: expressed in transfected cells; host or cells: CHO-K1
Kind of assay: Whole-cell patch clamp, Kv1.7 point mutant. The class given is cell-based. The text has this: This observation prompted further exploration of the potential function of the homologous residue in the Kv1.7 channel, where the corresponding site is occupied by an alanine.
The cDNA of hKv1.1, hKv1.2, hKv1.3, rKv1.4, hKv1.5, mKv1.6, and hKv1.7 were subcloned into mammalian expression vectors pcDNA3.1 or pCMV-blank vectors, as well as other plasmids described previously ([35]). Channel mutants were generated by site-directed mutations. Briefly, the parental channel plasmid was amplified using a pair of oppositely directed primers harboring the designed mutation site, with KOD Fx (TOYOBO Co, Ltd). […]
CHO-K1 cells were selected for expressing Kv channels due to their lack of endogenous Kv channels, while HEK293 or ND7/23 cells were used for Nav and Cav channel expression. […] After 4 to 6 h transfection, cells were seeded onto poly-lysine–coated coverslips, and 24 to 36 h later, transfected cells were ready for patch-clamp analysis. […]
For Kv current recordings, the bath solution contained (in mM) the following: 140 NaCl, 5 KCl, 1 MgCl2, 2 CaCl2, 10 glucose, and 10 Hepes (pH 7.3, adjusted with NaOH), and the pipette solution contained (in mM) the following: 140 KCl, 2.5 MgCl2, 11 EGTA, and 10 Hepes (pH 7.3, adjusted with KOH). […] The steady-state fast inactivation of Kv1.3 was measured using a two-pulses protocol. […]
On the technique in general: In patch-clamp work, channel activity is measured electrically.

T1 sequence (Q96RP8 whole entry A256T): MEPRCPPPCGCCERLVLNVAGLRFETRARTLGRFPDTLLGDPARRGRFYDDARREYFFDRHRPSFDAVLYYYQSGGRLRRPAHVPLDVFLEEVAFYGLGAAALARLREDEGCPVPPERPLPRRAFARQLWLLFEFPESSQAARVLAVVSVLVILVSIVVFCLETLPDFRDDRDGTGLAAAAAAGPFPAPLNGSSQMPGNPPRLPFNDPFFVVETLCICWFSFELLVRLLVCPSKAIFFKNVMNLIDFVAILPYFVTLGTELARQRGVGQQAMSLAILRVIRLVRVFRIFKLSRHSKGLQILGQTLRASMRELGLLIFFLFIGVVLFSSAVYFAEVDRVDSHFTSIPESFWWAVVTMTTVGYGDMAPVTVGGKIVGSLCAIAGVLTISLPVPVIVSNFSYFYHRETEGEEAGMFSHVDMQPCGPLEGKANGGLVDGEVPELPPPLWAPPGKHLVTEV

For `CC[C@H](C)[C@@H]1NC(=O)[C@H](Cc2ccc(O)cc2)NC(=O)[C@H](CCC(N)=O)NC(=O)[C@@H]2CCCN2C(=O)[C@@H]2CSSC[C@H](NC(=O)[C@H](C)NC(=O)[C@H](CO)NC(=O)[C@H](CCC(=O)O)NC(=O)[C@H](CCC(=O)O)NC(=O)[C@@H](N)[C@@H](C)O)C(=O)NCC(=O)NCC(=O)N[C@@H](Cc3ccccc3)C(=O)N[C@@H](CC(N)=O)C(=O)N[C@@H](C)C(=O)N[C@@H](CCCNC(=N)N)C(=O)N[C@H]3CSSC[C@H](NC1=O)C(=O)N[C@@H](CCCCN)C(=O)NCC(=O)N[C@@H](Cc1c[nH]c4ccccc14)C(=O)N[C@@H](CCCNC(=N)N)C(=O)N[C@@H]([C@@H](C)O)C(=O)N[C@@H](CCCCN)C(=O)N[C@@H](CCCNC(=N)N)C(=O)N[C@H](C(=O)N[C@@H](CC(C)C)C(=O)N[C@@H](CC(N)=O)C(=O)N1CCC[C@H]1C(=O)O)CSSC[C@H](NC(=O)[C@H](CCCCN)NC(=O)[C@H](Cc1c[nH]cn1)NC(=O)[C@H](CC(C)C)NC(=O)[C@@H]1CCCN1C3=O)C(=O)N2` [MrVIII] (H-TEESACGGFNARCPLHKCCPQYICKGWRTKRCLNP-OH; disulfide 6-19, 13-24, 18-32; N-terminus and C-terminus assumed), under “+30 mV, mean ± SD, n = 6, SD, read-out: IC50, Kv1.7/A256T current (full inhibition)”, the IC50 was 138 ± 50.3 nM. For the same compound, the “potency on Kv1.7/A256T weaker than on the Kv1.3 channel” value (ratio of IC50 values) was “approximately 28 fold”.
